From the supplement of paper PMC10307832

Key:
Test in all cases: relative viability (nuclei count vs DMSO), 5 days (fraction); higher = more cells survive
[1] = compound: CCn1c(-c2nonc2N)nc2cnc(Oc3cccc(NC(=O)c4ccc(OCCN5CCOCC5)cc4)c3)cc21 + CC(C)C[C@H](NC(=O)[C@H](Cc1ccccc1)NC(=O)c1cnccn1)B(O)O [Bortezomib] (partner 0.002 µM)
In short: (§1)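 Lung cancer cell lines in 1536-well plates were dosed by pin tool the day after seeding, either with one drug alone or with a fixed anchor-drug dose plus five library-drug doses (not always all listed) in √10 steps. After 5 days, cells were fixed and their nuclei stained in one step (final 0.05% Triton X-100, 1% formaldehyde, 1 ug/ml Hoechst), then counted on 4× images. Relative viability is the nuclei count in treated wells divided by that in vehicle wells. Values are medians of duplicate plates.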

[2] = compound: CCC1=CN=CN=C1N2CCN(CC2)CC3=NC4=C(N3)C=C(C=C4)C(F)(F)F + CC1(C)CCC(c2ccc(Cl)cc2)=C(CN2CCN(c3ccc(C(=O)NS(=O)(=O)c4ccc(N[C@H](CCN5CCOCC5)CSc5ccccc5)c(S(=O)(=O)C(F)(F)F)c4)cc3)CC2)C1 [Navitoclax] (partner 0.5 µM)
In short: as §1

[3] = compound: CCn1c(-c2nonc2N)nc2cnc(Oc3cccc(NC(=O)c4ccc(OCCN5CCOCC5)cc4)c3)cc21 + C[C@]1(O)C[C@@H](c2nc(-c3ccc4ccc(-c5ccccc5)nc4c3)c3c(N)nccn32)C1 [Linsitinib] (partner 1 µM)
In short: as §1

[4] = compound: CCC1=CN=CN=C1N2CCN(CC2)CC3=NC4=C(N3)C=C(C=C4)C(F)(F)F + CS(=O)(=O)CCNCc1ccc(-c2ccc3ncnc(Nc4ccc(OCc5cccc(F)c5)c(Cl)c4)c3c2)o1 [Lapatinib] (partner 2 µM)
In short: as §1

| Cell Line | relative viability ([1]; first compound 0.04 µM) | relative viability ([1]; first compound 0.1265 µM) | relative viability ([1]; first compound 0.4 µM) | relative viability ([1]; first compound 1.265 µM) | relative viability ([1]; first compound 4 µM) | relative viability ([2]; first compound 0.04 µM) | relative viability ([2]; first compound 0.1265 µM) | relative viability ([2]; first compound 0.4 µM) | relative viability ([2]; first compound 1.265 µM) | relative viability ([2]; first compound 4 µM) | relative viability ([3]; first compound 0.04 µM) | relative viability ([3]; first compound 0.1265 µM) | relative viability ([3]; first compound 0.4 µM) | relative viability ([3]; first compound 1.265 µM) | relative viability ([3]; first compound 4 µM) | relative viability ([4]; first compound 0.04 µM) | relative viability ([4]; first compound 0.1265 µM) | relative viability ([4]; first compound 0.4 µM) | relative viability ([4]; first compound 1.265 µM) | relative viability ([4]; first compound 4 µM) |
| --- | --- | --- | --- | --- | --- | --- | --- | --- | --- | --- | --- | --- | --- | --- | --- | --- | --- | --- | --- | --- |
| NCI-H1666 | 0.785 | 1.02 | 0.65 | 0.459 | 0.385 | 0.975 | 0.836 | 0.962 | 0.817 | 0.846 | 0.797 | 0.985 | 0.949 | 0.667 | 0.413 | 0.625 | 0.579 | 0.482 | 0.544 | 0.616 |
| NCI-H2170 | – | – | – | – | – | 0.561 | 0.69 | 0.534 | 0.608 | 0.608 | – | – | – | – | – | 0.277 | 0.263 | 0.267 | 0.27 | 0.296 |
| LCLC-97TM1 | 0.662 | 0.896 | 0.397 | – | 0.247 | 0.411 | 0.384 | 0.396 | 0.489 | 0.396 | 0.221 | 0.204 | – | 0.206 | 0.181 | 1.02 | 0.697 | 0.828 | 0.877 | 0.8 |
| NCI-H1299 | 1.06 | 0.975 | 0.929 | 0.825 | 0.734 | 1.09 | 1.03 | 1.03 | 1.05 | 1.04 | 0.987 | 0.858 | 0.777 | 0.47 | 0.769 | 0.977 | 0.985 | 0.96 | 0.948 | 0.955 |
| NCI-H322M | 1.2 | 1.26 | 1.22 | 1.58 | 1.55 | 1.26 | 1.1 | 1.13 | 1.29 | 1.2 | 1.03 | 0.845 | 0.912 | 0.939 | 0.808 | 0.631 | 0.571 | 0.575 | 0.499 | 0.682 |
| NCI-H1395 | – | – | – | – | – | 1.16 | 1.14 | 1.11 | 0.949 | 1.12 | 1.25 | 0.931 | 1.04 | 0.502 | 0.616 | 0.929 | 0.938 | 1.04 | 0.957 | 1.05 |
| NCI-H2009 | 1.06 | 0.875 | 0.647 | 0.322 | 0.318 | 1.19 | 1.16 | 1.09 | 1.1 | 1.09 | 1.01 | 0.99 | 0.999 | 0.701 | 0.423 | 1.07 | 1 | 0.894 | 0.715 | 0.808 |
| NCI-H1651 | 0.9 | 0.94 | 0.824 | 0.496 | 0.86 | 1.06 | 0.875 | 1.04 | 0.941 | 1.01 | 1.15 | 1.1 | 0.986 | 0.859 | 0.642 | 0.839 | 0.827 | 0.818 | 0.787 | 0.87 |
| NCI-H1944 | – | – | – | – | – | 0.97 | 0.948 | 1 | – | 0.916 | 1.31 | 1.18 | – | 1.14 | 1.16 | 0.976 | 0.691 | 0.767 | – | 0.875 |
| NCI-H1650 | 0.258 | 0.21 | 0.196 | 0.209 | 0.211 | 1.26 | 1.08 | 1.22 | 1.02 | 1.4 | – | – | – | – | – | 0.721 | 0.797 | 0.711 | 0.39 | 0.645 |
| ChaGo-K-1 | 1.45 | 0.892 | 0.752 | – | 0.688 | – | 1 | 0.927 | 0.936 | 0.942 | – | – | – | – | – | – | – | – | – | – |
| NCI-H650 | 1.14 | 0.631 | 0.349 | 0.295 | 0.374 | – | – | – | – | – | 1.01 | 0.667 | 0.521 | 0.304 | 0.426 | 0.73 | 0.762 | 1.21 | 1.01 | 1.06 |
| NCI-H661 | 0.896 | 0.865 | 0.815 | 0.608 | 0.616 | – | – | – | – | – | 0.652 | 0.612 | 0.518 | 0.471 | 0.45 | 0.646 | 0.437 | 0.411 | – | 0.475 |
| NCI-H441 | 0.484 | 0.895 | 0.458 | 0.42 | 0.374 | 0.448 | 0.523 | 0.57 | 0.573 | 0.677 | 0.545 | 0.766 | 0.635 | 0.566 | 0.465 | – | – | – | – | – |
| ABC-1 | 0.483 | 0.302 | 0.262 | 0.256 | 0.285 | – | – | – | – | – | 1.15 | 0.906 | 0.687 | 0.574 | 0.5 | 1.23 | 1.24 | 1.25 | 1.01 | 0.98 |
| LK-2 | – | – | – | – | – | 0.773 | 0.801 | 0.714 | 0.688 | 0.761 | 0.522 | 0.691 | 0.572 | 0.342 | 0.74 | 0.947 | 0.797 | 0.838 | 0.498 | 0.985 |
| SK-MES-1 | – | – | – | – | – | 1.15 | 1.22 | 1.07 | 1.2 | 1.31 | 1.24 | 0.952 | 0.896 | 0.774 | 0.823 | 0.487 | 0.432 | 0.749 | 0.43 | 0.428 |
| NCI-H1793 | – | – | – | – | – | 0.381 | 0.447 | 0.363 | – | 0.435 | 0.572 | 0.801 | 0.915 | 0.715 | 0.513 | 0.581 | 0.652 | 0.534 | – | 0.635 |
| A549 | – | – | – | – | – | 1.14 | 1.13 | 1.12 | 1.16 | 0.945 | 0.726 | 0.662 | 0.733 | 0.178 | 0.319 | 0.885 | 0.948 | 0.823 | 0.945 | 0.808 |
| LCLC-103H | 1.08 | 1.11 | 0.932 | 0.651 | 0.716 | – | – | – | – | – | 1.12 | 1.07 | 0.902 | 1.05 | 1.03 | – | – | – | – | – |
| NCI-H358 | – | – | – | – | – | – | – | – | – | – | 1.12 | 0.615 | 0.574 | 0.571 | 0.434 | 0.477 | 0.399 | 0.428 | 0.337 | 0.387 |
